Here are results for eight compounds from patent publication US7504522B2, “Azetidinecarboxamide derivatives and their use in the treatment of cb1 receptor mediated disorders” (Vernalis Research Limited, priority 2003, dated 2009).

As a reminder, the Ki is the equilibrium dissociation constant of an inhibitor or competing ligand from its target.

Assay [1] deals with T1, recombinant human CB1 receptors (Homo sapiens, UniProt P21554).
T1 construct: expressed in transfected cells; host or cells: HEK293 cells (membranes)
T1 sequence (P21554 whole entry): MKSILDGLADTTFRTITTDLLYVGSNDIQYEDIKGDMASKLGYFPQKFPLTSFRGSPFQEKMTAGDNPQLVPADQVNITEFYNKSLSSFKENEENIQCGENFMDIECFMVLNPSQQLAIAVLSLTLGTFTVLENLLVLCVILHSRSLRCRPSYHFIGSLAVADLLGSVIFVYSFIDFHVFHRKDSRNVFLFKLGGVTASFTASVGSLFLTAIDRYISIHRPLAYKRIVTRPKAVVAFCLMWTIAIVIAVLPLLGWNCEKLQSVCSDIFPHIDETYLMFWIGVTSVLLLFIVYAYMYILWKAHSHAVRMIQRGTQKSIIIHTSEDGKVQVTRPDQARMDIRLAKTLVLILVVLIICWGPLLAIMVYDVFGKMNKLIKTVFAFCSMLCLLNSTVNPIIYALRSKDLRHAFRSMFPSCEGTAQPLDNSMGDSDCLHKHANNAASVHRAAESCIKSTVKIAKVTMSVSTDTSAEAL
The assay is described as follows: Binding to CB1 receptors. The conditions noted are these: [^3H]-SR-141716A 1 nM; membranes from HEK293 cells expressing recombinant hCB1; Ki calculated from IC50 by Cheng-Prusoff. The protocol:
The binding of compounds of Formula I to recombinant human CB1 receptors was determined in vitro by standard methods, with reference to the procedure described by Rinaldi-Carmona et al. (Rinaldi-Camona, M., Pialot, F., Congy, C., Redon, E., Barth, F., Bachy, A., Breliere, J. C., Soubre, P., LeFur, G., Life Sci. 1996, 58(15), 1239-1247). Membranes were prepared from HEK293 cells expressing recombinant hCB1 receptors. Binding assays are performed in a total volume of 250 μL, containing [^3H]—SR-141716A (1 nM final concentration), membranes and test compound. Non-specific binding is determined using CP55,940 (10 μM). Serial dilutions are performed starting from test compounds as 10 mM solutions in DMSO. Compounds are tested over the concentration range 10^−10 M to 10^−5 M. Ki values are calculated from IC50 values using the Cheng-Prusoff equation.

The next assay has as its system male C57B1/6 mice. The experiment in a line: Blockade of Δ^9-THC induced hypolocomotion in mice. In kind it is in vivo. The conditions noted are these: p.o.; antagonism of reduction in locomotor behaviour induced by 3 mg/kg i.p. Δ^9-THC. On the procedure: The in vivo activity of compounds of formula (I) was assayed for ability to antagonise the reduction in locomotor behaviour induced by acute systemic administration of Δ^9-THC in male C57B1/6 mice. The procedure was as follows.
Test compounds are assessed following acute oral or intraperitoneal administration at a dose of 30 mg/kg.
The route of test compound administration, drug volume and injection-test-interval are dependent upon the compounds used. 10 min before testing, a 3 mg/kg dose Δ^9-THC (or vehicle) is administered to mice by the i.p. route. […] The light beams are arranged on a 7 by 4 matrix on a metal grid. 16 grids are connected in series and Perspex boxes, 20 (width)×40 (length)×20 (height) cm, with a flat perforated, Perspex lid are placed in each grid. Mice are placed singly in Perspex boxes and the recording of activity in all 16 boxes starts simultaneously. The mice are left undisturbed to explore the novel activity monitor boxes for 15 minutes while beam breaks are recorded.
Locomotor activity data are subjected to one-way analysis of variance (ANOVA) with drug treatment as a between-subjects factor. […] Significant differences between the vehicle/Δ^9-THC group and Test compound/Δ^9-THC groups are assessed by Newman-Keuls test. All statistical analyses were performed using Statistica Software, Version 6.0 (Statsoft Inc.) and Microsoft Excel 7.0 (Microsoft Corp.).

The test system of assay [2] is male food-deprived Lister-hooded rats. The assay is described as follows: Regulation of feeding behaviour (food consumption). In kind it is in vivo. To be noted: p.o.; acute administration; food consumption after 18-hour food withdrawal. The protocol: The in vivo activity of compounds of formula (I) was assayed for ability to regulate feeding behaviour by measuring food consumption in male food-deprived Lister-hooded rats as follows.
Test compounds are assessed following acute administration.
The anorectic drug sibutramine, or the reference CB1 receptor antagonist, SR141716A, normally serves as a positive control. The route of drug administration, drug volume and injection-test-interval are dependent upon the compounds used. The injection-test-interval is the time between dosing and food re-presentation. Typically, animals are fasted such that at the time of food re-presentation food has been withdrawn for an 18-hour period. Food consumption is assayed at pre-determined time points (typically 1, 2 and 4 hours after administration). Food intake data are subjected to one-way analysis of variance (ANOVA) with drug as a between-subjects factor. […] All statistical analyses were performed using Statistica Software, Version 6.0 (Statsoft Inc.) and Microsoft Excel 7.0 (Microsoft Corp.).

For the compound `CC(C)(C)NC(=O)N1CC(OC(c2ccc(Cl)cc2)c2ccccc2C(F)(F)F)C1` (racemic) [Example 81, 3-[2-(trifluoromethyl)-4′-chlorobenzhydryloxy]-N-(tert-butyl)azetidine-1-carboxamide], in assay [1], the Ki was 2.3 nM. Moreover, the “Active dose (mg/kg), route” value with male C57B1/6 mice is 30, p.o. mg/kg. The “M.E.D (mg/kg), route” value in assay [2] was 3, p.o. mg/kg.

`CC(C)(C)NC(=O)N1CC(OC(c2ccc(Cl)cc2)c2ccccc2C(F)(F)F)C1` (single isomer, unassigned) [Example 139, 3-[(R*)-2-(trifluoromethyl)-4′-chlorobenzhydryloxy]-N-(tert-butyl)-azetidine-1-carboxamide]: in assay [1], the Ki was 0.6 nM. For the same compound, the “M.E.D (mg/kg), route” value in assay [2] is 1, p.o. mg/kg.

For `CC(C)(C)NC(=O)N1CC(OC(c2ccc(S(C)(=O)=O)cc2)c2ccccc2C(F)(F)F)C1` (single isomer, unassigned) [Example 140, 3-[(S*)-2-(trifluoromethyl)-4′-(methylsulphonyl)benzhydryloxy]-N-(tert-butyl)azetidine-1-carboxamide], the Ki in assay [1] was 27 nM.

As for `CC(C)(C)NC(=O)N1CC(OC(c2ccc(Cl)cc2)c2ccc(Cl)cc2Cl)C1` (centres unmarked) [Example 1, 3-(2,4,4′-trichlorobenzhydryloxy)-N-(tert-butyl)azetidine-1-carboxamide], in assay [1], the Ki is 4.7 nM. Besides, the “Active dose (mg/kg), route” value in the assay on male C57B1/6 mice is recorded as 30, p.o. mg/kg. Also, the “M.E.D (mg/kg), route” value in assay [2] is 30, p.o. mg/kg.

Regarding `CC(C)(C)NC(=O)N1CC(OC(c2ccc(Cl)cc2)c2ccccc2Cl)C1` (centres unmarked) [Example 4, 3-(2,4′-dichlorobenzhydryloxy)-N-(tert-butyl)azetidine-1-carboxamide], in assay [1], the Ki is 4.5 nM. Further, the “Active dose (mg/kg), route” value in the assay with male C57B1/6 mice is 30, p.o. mg/kg. Besides, the “M.E.D (mg/kg), route” value in assay [2] is 30, p.o. mg/kg.

In the case of `CC(C)(C)NC(=O)N1CC(OC(c2ccc(Cl)cc2)c2ccc(Cl)cc2)C1` [Example 28, 3-(4,4′-dichlorobenzhydryloxy)-N-(tert-butyl)azetidine-1-carboxamide], in assay [1], the Ki is 80 nM.

With `O=C(NC12CC3CC(CC(C3)C1)C2)N1CC(OC(c2ccc(Cl)cc2)c2ccc(Cl)cc2)C1` [Example 30, 3-(4,4′-dichlorobenzhydryloxy)-N-(1-adamantyl)azetidine-1-carboxamide], the Ki in assay [1] is 19 nM.

Turning to `CC(C)(C)NC(=O)N1CC(OC(c2ccc(Br)cc2F)c2ccccc2C(F)(F)F)C1` (centres unmarked) [Example 94, 3-[2-(trifluoromethyl)-2′-fluoro-4′-bromobenzhydryloxy]-N-(tert-butyl)azetidine-1-carboxamide], the inhibition constant (Ki) in assay [1] was 1.3 nM. Besides, the “Active dose (mg/kg), route” value in the assay on male C57B1/6 mice is given as 30, p.o. mg/kg. In assay [2], the “M.E.D (mg/kg), route” value was 10, p.o. mg/kg.
